The subject of one data set is humans. The following applies: cited from earlier work.

The text below walks through data of patent publication US20090170940A1 (priority 2007, published 2009).

Molecules are shown by their SMILES. Structures can show the parent of a compound that is named as a salt.

With `CNC(=O)Oc1cccc2c1OC(C)(C)C2` [Furadan, 2,3-dihydro-2,2-dimethyl-7-benzofuranyl methylcarbamate], the “% Eclosion” value in the data set on nematode eggs came out at 0.05%. Moreover, in the data set on humans, the “amount that can be fatal” value is 1 mL.
Take `CCOC=O` [ethyl formate]: in the data set on nematode eggs, the “% Eclosion” value is given as 0.05%.
